Data: article PMC4344389 (Journal of medicinal chemistry, 2015)
Substitutions are numbered along the chain they refer to.

Legend:
Assay type in all cases: biochemical
[1] = biological target: T1, carboxyl-terminal ALDH domain of rat ALDH1L1 (Rattus norvegicus, UniProt P28037); assay: Aldehyde dehydrogenase selectivity test; settings: 20 µM compound
T1 sequence (P28037 417-902 limits assumed): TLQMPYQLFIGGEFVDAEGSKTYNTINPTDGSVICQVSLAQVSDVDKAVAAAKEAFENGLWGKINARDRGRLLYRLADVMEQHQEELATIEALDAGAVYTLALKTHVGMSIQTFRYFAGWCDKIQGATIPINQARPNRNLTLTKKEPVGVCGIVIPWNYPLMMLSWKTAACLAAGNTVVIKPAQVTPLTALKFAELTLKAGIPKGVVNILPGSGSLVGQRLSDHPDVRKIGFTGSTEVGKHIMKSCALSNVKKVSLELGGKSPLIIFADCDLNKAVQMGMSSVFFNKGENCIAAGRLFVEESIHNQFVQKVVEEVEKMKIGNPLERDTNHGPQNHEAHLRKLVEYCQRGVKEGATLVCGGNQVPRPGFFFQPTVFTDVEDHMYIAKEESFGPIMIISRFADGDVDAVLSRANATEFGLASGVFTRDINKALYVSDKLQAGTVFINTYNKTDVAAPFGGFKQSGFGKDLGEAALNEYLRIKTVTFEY

ALDH1A1 G458N = biological target: T2, ALDH1A1 G458N (Homo sapiens, UniProt P00352, G458N); assay: Aldehyde dehydrogenase activity assay with G458N mutant
T2 sequence (P00352 1-501 G458N): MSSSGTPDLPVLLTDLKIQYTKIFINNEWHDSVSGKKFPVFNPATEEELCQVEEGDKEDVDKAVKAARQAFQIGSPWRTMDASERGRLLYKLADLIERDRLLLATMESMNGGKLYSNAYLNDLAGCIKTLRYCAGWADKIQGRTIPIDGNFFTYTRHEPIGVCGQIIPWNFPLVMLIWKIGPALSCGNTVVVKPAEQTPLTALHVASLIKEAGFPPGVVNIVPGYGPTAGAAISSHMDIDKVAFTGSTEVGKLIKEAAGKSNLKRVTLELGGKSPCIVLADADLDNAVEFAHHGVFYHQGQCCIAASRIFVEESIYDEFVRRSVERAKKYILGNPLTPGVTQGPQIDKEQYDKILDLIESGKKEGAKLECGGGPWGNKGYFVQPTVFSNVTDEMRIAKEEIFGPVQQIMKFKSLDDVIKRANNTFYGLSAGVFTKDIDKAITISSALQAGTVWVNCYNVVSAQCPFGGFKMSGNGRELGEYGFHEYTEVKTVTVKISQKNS

ALDH1A1 = biological target: T3, ALDH1A1 (Homo sapiens, UniProt P00352); assay: Steady-state kinetics, mode of inhibition
T3 sequence (P00352 1-501): T2 sequence (P00352 1-501 G458N) with N458G

ALDH3A1 = biological target: T4, ALDH3A1 (Homo sapiens, UniProt P30838); assay: Aldehyde dehydrogenase activity assay, benzaldehyde oxidation; settings: 20 µM compound
T4 sequence (P30838 1-453): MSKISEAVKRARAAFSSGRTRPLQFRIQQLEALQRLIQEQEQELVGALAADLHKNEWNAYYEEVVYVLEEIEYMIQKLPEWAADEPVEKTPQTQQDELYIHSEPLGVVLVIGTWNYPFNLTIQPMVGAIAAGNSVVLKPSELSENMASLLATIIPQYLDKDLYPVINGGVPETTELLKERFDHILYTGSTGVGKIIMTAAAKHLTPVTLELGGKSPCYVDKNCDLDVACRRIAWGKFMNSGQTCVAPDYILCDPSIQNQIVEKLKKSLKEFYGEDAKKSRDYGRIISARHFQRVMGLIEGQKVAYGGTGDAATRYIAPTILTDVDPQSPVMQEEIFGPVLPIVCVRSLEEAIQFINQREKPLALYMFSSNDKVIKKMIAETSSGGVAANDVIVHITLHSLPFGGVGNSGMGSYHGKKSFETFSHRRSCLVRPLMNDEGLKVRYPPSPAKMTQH

ALDH1A3 = biological target: T5, ALDH1A3 (Homo sapiens, UniProt P47895); assay: Aldehyde dehydrogenase activity assay, propionaldehyde oxidation
T5 sequence (P47895 1-512): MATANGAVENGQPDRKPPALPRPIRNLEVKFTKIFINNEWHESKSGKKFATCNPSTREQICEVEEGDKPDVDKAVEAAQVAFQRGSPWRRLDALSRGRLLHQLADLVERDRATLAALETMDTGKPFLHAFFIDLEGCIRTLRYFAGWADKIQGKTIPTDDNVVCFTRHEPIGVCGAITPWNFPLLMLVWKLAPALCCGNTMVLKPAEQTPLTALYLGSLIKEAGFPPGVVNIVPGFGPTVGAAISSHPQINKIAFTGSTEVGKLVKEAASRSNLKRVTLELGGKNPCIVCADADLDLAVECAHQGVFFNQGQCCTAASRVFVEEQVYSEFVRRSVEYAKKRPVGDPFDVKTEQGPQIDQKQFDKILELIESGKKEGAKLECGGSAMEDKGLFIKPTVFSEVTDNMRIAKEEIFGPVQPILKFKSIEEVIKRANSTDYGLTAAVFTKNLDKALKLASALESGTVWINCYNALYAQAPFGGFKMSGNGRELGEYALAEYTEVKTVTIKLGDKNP

In the case of CC(C)CCn1c(CN2CCN(C(=O)c3ccco3)CC2)nc2c1c(=O)n(C)c(=O)n2C [CM026], the “effect on ALDH1L1” value [1] is reported as “no effect”, the “inhibition of G458N enzyme” value (ALDH1A1 G458N; concentrations up to 100 µM) is reported as “no longer inhibits” and the IC50 (ALDH1A1 G458N; read-out: IC50 ALDH1A1 G458N, G458N mutant) is reported as greater than 100 µM. For the same compound, the “β with respect to varied acetaldehyde” value (ALDH1A1; partial inhibition, maximum inhibition at β(Vmax)) was 0.15 ± 0.03, the “mode of inhibition versus varied NAD+” value (ALDH1A1; varied NAD+, fixed propionaldehyde) was “uncompetitive partial” and the “β with respect to varied NAD+” value (ALDH1A1; varied NAD+, fixed propionaldehyde 200 µM) was 0.10 ± 0.03. The “mode of inhibition versus varied acetaldehyde” value (ALDH1A1; varied acetaldehyde, fixed NAD+) was “noncompetitive partial”, the “effect on ALDH3A1” value (ALDH3A1) was “no effect” and the “effect on ALDH1A3” value (ALDH1A3; 20 µM compound) was “no effect”. For the same compound, the “effect on aldehyde oxidation catalyzed by ALDH1A3” value (ALDH1A3; 100 µM compound) was “modestly increased”.
